# Experimental data taken from patent US20160220602A1, “USE OF CHINESE MEDICINE PREPARATION IN PREPARING DRUG FOR PREVENTING AND/OR TREATING CROHN'S DISEASE” (TASLY PHARMACEUTICAL GROUP CO., LTD., priority 2013, published 2016).
# Key:
# Assay type in all cases: in vivo, SD rats
# IFN-γ = experiment: Serum IFN-γ by ELISA, OXZ model rats; details: 100 mg/kg once per day, 11 days
# Description: (§1) Grouping: the experiment was carried out by using two ways of intracolonic and intragastric administration. […] There were 10 rats each group. Method for establishing rat model: referring to the Heller method, OXZ was used to induce the SD rat Crohn's disease model (abbreviated as “OXZ model”). Neck and back skin of rats were shaved (2 cm×2 cm). Ethanol was used to prepare 5% (w/v) OXZ solution, and 0.3 ml resultant OXZ solution was dripped on the skin of rats. After the solution was air-dried naturally, skin allergy occurred in rats. The sensitized rats were adaptively raised for 5 days, […] anesthetized by intraperitoneal injection of pentobarbital sodium. […] After completion, the rats were inverted by lifting tails for 60s to make the solution totally absorbed. […] If the rats manifested dark hair color, body weight loss, poor appetite, lassitude, watery stool or diarrhea, the model establishment was success. Administration method: after successful model establishment by OXZ, the drug was given to rats. The TCM preparation k saline solutions at corresponding dose were administered to the groups of preparation k of all doses and the […] saline solution, a positive drug, administrated to the positive control group. […] Serum IFN-γ, IL-4, and Gln in intestinal mucosa were determined by ELISA in rats.
# [1] = system: TNBS-induced SD rat Crohn's disease model; experiment: Colon gross damage and histopathological score, TNBS model rats; details: 100 mg/kg
# Description: Grouping: experiment was carried out by using two ways of intracolonic and intragastric administrations. […] There were 10 rats each group. Method for establishing rat model: referring to Morris method, TNBS was used to induce the SD rat Crohn's disease model (abbreviated as “TNBS model”). 24 hours before modeling, the SD rats were fasted but water was given. […] The rats of blank control group were normally fed with free access to water and the same volume of normal saline was given in the same administration routes by referring to the dosage regime of aforementioned treatment groups. The rats of model group were administrated with the same volume of normal saline in the same administration routes. […] (3) Pathological indices: the colon of rats was taken out. The gross colon tissue damage was scored, subsequently examined and scored histopathologically by conventional HE staining. […] [table]
# [2] = system: OXZ-induced SD rat Crohn's disease model; experiment: Colon gross damage and histopathological score, OXZ model rats; details: 100 mg/kg
# Description: Grouping: the experiment was carried out by using two ways of intracolonic and intragastric administration. […] There were 10 rats each group. Method for establishing rat model: referring to the Heller method, OXZ was used to induce the SD rat Crohn's disease model (abbreviated as “OXZ model”). Neck and back skin of rats were shaved (2 cm×2 cm). Ethanol was used to prepare 5% (w/v) OXZ solution, and 0.3 ml resultant OXZ solution was dripped on the skin of rats. […] The sensitized rats were adaptively raised for 5 days, […] anesthetized by intraperitoneal injection of pentobarbital sodium. […] After completion, the rats were inverted by lifting tails for 60s to make the solution totally absorbed. […] If the rats manifested dark hair color, body weight loss, poor appetite, lassitude, watery stool or diarrhea, the model establishment was success. Administration method: after successful model establishment by OXZ, the drug was given to rats. The TCM preparation k saline solutions at corresponding dose were administered to the groups of preparation k of all doses and the […] saline solution, a positive drug, administrated to the positive control group. The rats of blank control group were normally fed, given with water and the same volume of normal saline was given in the same administration routes by referring to the dosage regime of aforesaid treatment groups. The rats of model group were administrated with the same volume of normal saline in the same administration routes. The dose of each group was as follows: […] group at 100 mg/kg rat weight, the TCM preparation k high-dose group at 2.023 g raw medicine/kg rat weight, the middle-dose group at 1.012 g raw medicine/kg rat weight and the low-dose group at 0.506 g raw medicine/kg rat weight.
# Gln in intestinal mucosa = Gln in intestinal mucosa by ELISA, TNBS model rats; details: 100 mg/kg once per day, 21 days
# Description: (§2) Grouping: experiment was carried out by using two ways of intracolonic and intragastric administrations. […] There were 10 rats each group. Method for establishing rat model: referring to Morris method, TNBS was used to induce the SD rat Crohn's disease model (abbreviated as “TNBS model”). 24 hours before modeling, the SD rats were fasted but water was given. […] The rats of blank control group were normally fed with free access to water and the same volume of normal saline was given in the same administration routes by referring to the dosage regime of aforementioned treatment groups. The rats of model group were administrated with the same volume of normal saline in the same administration routes. […] (2) Serum indices: after final administration, the testing rats were fasted but given water. 24 hours later, blood was gained from abdominal aorta. Serum IFN-γ, IL-1, IL-4, IL-10 and Gln in intestinal mucosa were determined by enzyme-linked immunosorbent assay (ELISA) in rats.
# IL-10 = experiment: Serum IL-10 by ELISA, TNBS model rats; details: 100 mg/kg once per day, 21 days
# Description: as §2
# IL-1 = experiment: Serum IL-1 by ELISA, TNBS model rats; details: 100 mg/kg once per day, 21 days
# Description: as §2
# IL-4 = experiment: Serum IL-4 by ELISA, OXZ model rats; details: 100 mg/kg once per day, 11 days
# Description: as §1
# [3] = Table 18: OXZ-model rats, route not printed in title
structure (smiles),measurement,setting,value
"Nc1ccc(O)c(C(=O)O)c1 [mesalamine, Mesalamine]",IFN-γ serum content (Mean ± SD),IFN-γ; intracolonic,85.85 ± 10.66 pg/mL
same,IFN-γ serum content (Mean ± SD),IFN-γ; intragastric,81.88 ± 18.00 pg/mL
same,Gross damage score (Mean ± SD),[1]; intracolonic,0.500 ± 0.707
same,Histopathological score (Mean ± SD),[1]; intracolonic,1.00 ± 1.10
same,Gross damage score (Mean ± SD),[1]; intragastric,0.556 ± 0.527
same,Histopathological score (Mean ± SD),[1]; intragastric,0.83 ± 0.41
same,Gross damage score (Mean ± SD),"[2]; OXZ model rats, intragastric",1.700 ± 1.494
same,Gross damage score (Mean ± SD),[2]; [3],1.800 ± 1.229
same,Histopathological score (Mean ± SD),[2]; [3],3.17 ± 1.33
same,Gln in intestinal mucosa (Mean ± SD),Gln in intestinal mucosa; intracolonic,146.36 ± 28.11 µmol/L
same,Gln in intestinal mucosa (Mean ± SD),Gln in intestinal mucosa; intragastric,158.74 ± 41.35 µmol/L
same,IL-10 serum content (Mean ± SD),IL-10; intracolonic,88.06 ± 10.47 pg/mL
same,IL-10 serum content (Mean ± SD),IL-10; intragastric,88.56 ± 16.77 pg/mL
same,IL-1 serum content (Mean ± SD),IL-1; intracolonic,167.66 ± 26.95 pg/mL
same,IL-1 serum content (Mean ± SD),IL-1; intragastric,154.59 ± 39.98 pg/mL
same,IL-4 serum content (Mean ± SD),IL-4; intracolonic,86.63 ± 11.20 pg/mL
same,IL-4 serum content (Mean ± SD),IL-4; intragastric,86.86 ± 7.84 pg/mL
